Activity calls are given as the source filed them. No rule for the calls is given here.
Tested on: CCRIS mutagenicity, Ames/micronucleus/aberration tests
Experiment: CCRIS mutagenicity studies
[1] = Test System: AMES SALMONELLA TYPHIMURIUM, Strain/Indicator: TA98, Metabolic Activation: NONE, Method: PREINCUBATION
[2] = Test System: AMES SALMONELLA TYPHIMURIUM, Strain/Indicator: TA100, Metabolic Activation: NONE, Method: PREINCUBATION
[3] = Test System: AMES SALMONELLA TYPHIMURIUM, Strain/Indicator: TA1535, Metabolic Activation: NONE, Method: PREINCUBATION
[4] = Test System: AMES SALMONELLA TYPHIMURIUM, Strain/Indicator: TA98, Metabolic Activation: NONE, Method: STANDARD PLATE
[5] = Test System: AMES SALMONELLA TYPHIMURIUM, Strain/Indicator: TA100, Metabolic Activation: NONE, Method: STANDARD PLATE

## Nc1cccc(O)c1
Test System: AMES SALMONELLA TYPHIMURIUM, Strain/Indicator: TA97, Metabolic Activation: HAMSTER, LIVER, S-9, AROCLOR 1254 (10%), Method: PREINCUBATION
  mutagenic call: inactive; negative
Test System: AMES SALMONELLA TYPHIMURIUM, Strain/Indicator: TA97, Metabolic Activation: NONE, Method: PREINCUBATION
  mutagenic call: inactive; negative
Test System: AMES SALMONELLA TYPHIMURIUM, Strain/Indicator: TA97, Metabolic Activation: RAT, LIVER, S-9, AROCLOR 1254 (10%), Method: PREINCUBATION
  mutagenic call: inactive; negative
Test System: AMES SALMONELLA TYPHIMURIUM, Strain/Indicator: TA98, Metabolic Activation: HAMSTER, LIVER, S-9, AROCLOR 1254 (5 OR 10%), Method: PREINCUBATION
  mutagenic call: active; positive
Test System: AMES SALMONELLA TYPHIMURIUM, Strain/Indicator: TA98, Metabolic Activation: HAMSTER, LIVER, S-9, AROCLOR 1254 (30%), Method: PREINCUBATION
  mutagenic call: inactive; negative
Test System: AMES SALMONELLA TYPHIMURIUM, Strain/Indicator: TA98, Metabolic Activation: NONE
  mutagenic call: inactive; negative
[1]
  mutagenic call: inactive; negative
Test System: AMES SALMONELLA TYPHIMURIUM, Strain/Indicator: TA98, Metabolic Activation: RAT, LIVER, S-9, AROCLOR 1254 (5, 10 OR 30%), Method: PREINCUBATION
  mutagenic call: inactive; negative
Test System: AMES SALMONELLA TYPHIMURIUM, Strain/Indicator: TA98, Metabolic Activation: S-9
  mutagenic call: inactive; negative
Test System: AMES SALMONELLA TYPHIMURIUM, Strain/Indicator: TA100, Metabolic Activation: HAMSTER, LIVER, S-9, AROCLOR 1254 (10%), Method: PREINCUBATION
  mutagenic call: inactive; negative
[2]
  mutagenic call: inactive; negative
Test System: AMES SALMONELLA TYPHIMURIUM, Strain/Indicator: TA100, Metabolic Activation: RAT, LIVER, S-9, AROCLOR 1254 (10%), Method: PREINCUBATION
  mutagenic call: inactive; negative
Test System: AMES SALMONELLA TYPHIMURIUM, Strain/Indicator: TA1535, Metabolic Activation: HAMSTER, LIVER, S-9, AROCLOR 1254 (10%), Method: PREINCUBATION
  mutagenic call: inactive; negative
[3]
  mutagenic call: inactive; negative
Test System: AMES SALMONELLA TYPHIMURIUM, Strain/Indicator: TA1535, Metabolic Activation: RAT, LIVER, S-9, AROCLOR 1254 (10%), Method: PREINCUBATION
  mutagenic call: inactive; negative

## Nc1ncnc2c1ncn2[C@H]1C[C@H](O)[C@@H](CO)O1
[4]
  mutagenic call: inactive; negative
Test System: AMES SALMONELLA TYPHIMURIUM, Strain/Indicator: TA98, Metabolic Activation: RAT, LIVER, S-9, POLYCHLORINATED BIPHENYLS, Method: STANDARD PLATE
  mutagenic call: inactive; negative
[5]
  mutagenic call: inactive; negative
Test System: AMES SALMONELLA TYPHIMURIUM, Strain/Indicator: TA100, Metabolic Activation: RAT, LIVER, S-9, POLYCHLORINATED BIPHENYLS, Method: STANDARD PLATE
  mutagenic call: inactive; negative
Test System: MOUSE LYMPHOMA, Strain/Indicator: L5178Y (TK+/TK-), Metabolic Activation: NONE, Method: SUSPENSION/PLATE
  mutagenic call: active; positive

## N#Cc1ccccc1C#N
[1]
  mutagenic call: inactive; negative
Test System: AMES SALMONELLA TYPHIMURIUM, Strain/Indicator: TA98, Metabolic Activation: RAT LIVER S-9, PHENOBARBITAL AND BETA-NAPHTHOFLAVONE, Method: PREINCUBATION
  mutagenic call: inactive; negative
[2]
  mutagenic call: inactive; negative
Test System: AMES SALMONELLA TYPHIMURIUM, Strain/Indicator: TA100, Metabolic Activation: RAT LIVER S-9, PHENOBARBITAL AND BETA-NAPHTHOFLAVONE, Method: PREINCUBATION
  mutagenic call: inactive; negative
[3]
  mutagenic call: inactive; negative
Test System: AMES SALMONELLA TYPHIMURIUM, Strain/Indicator: TA1535, Metabolic Activation: RAT LIVER S-9, PHENOBARBITAL AND BETA-NAPHTHOFLAVONE, Method: PREINCUBATION
  mutagenic call: inactive; negative
Test System: AMES SALMONELLA TYPHIMURIUM, Strain/Indicator: TA1537, Metabolic Activation: NONE, Method: PREINCUBATION
  mutagenic call: inactive; negative
Test System: AMES SALMONELLA TYPHIMURIUM, Strain/Indicator: TA1537, Metabolic Activation: RAT LIVER S-9, PHENOBARBITAL AND BETA-NAPHTHOFLAVONE, Method: PREINCUBATION
  mutagenic call: inactive; negative
Test System: AMES SALMONELLA TYPHIMURIUM, Strain/Indicator: TA1538, Metabolic Activation: NONE, Method: PREINCUBATION
  mutagenic call: inactive; negative
Test System: AMES SALMONELLA TYPHIMURIUM, Strain/Indicator: TA1538, Metabolic Activation: RAT LIVER S-9, PHENOBARBITAL AND BETA-NAPHTHOFLAVONE, Method: PREINCUBATION
  mutagenic call: inactive; negative
Test System: E.COLI, Strain/Indicator: WP2UVRA, Metabolic Activation: NONE, Method: PREINCUBATION
  mutagenic call: inactive; negative
Test System: E.COLI, Strain/Indicator: WP2UVRA, Metabolic Activation: RAT LIVER S-9, PHENOBARBITAL AND BETA-NAPHTHOFLAVONE, Method: PREINCUBATION
  mutagenic call: inactive; negative

## COP(=O)(OC)C(OC(=O)CCl)C(Cl)(Cl)Cl (configuration not stated)
[4]
  mutagenic call: inactive; negative
Test System: AMES SALMONELLA TYPHIMURIUM, Strain/Indicator: TA98, Metabolic Activation: RAT, LIVER, S-9, AROCLOR, Method: STANDARD PLATE
  mutagenic call: inactive; negative
[5]
  mutagenic call: inactive; negative
Test System: AMES SALMONELLA TYPHIMURIUM, Strain/Indicator: TA100, Metabolic Activation: RAT, LIVER, S-9, AROCLOR, Method: STANDARD PLATE
  mutagenic call: inactive; negative
Test System: AMES SALMONELLA TYPHIMURIUM, Strain/Indicator: TA1535, Metabolic Activation: NONE, Method: STANDARD PLATE
  mutagenic call: inactive; negative
Test System: AMES SALMONELLA TYPHIMURIUM, Strain/Indicator: TA1535, Metabolic Activation: RAT, LIVER, S-9, AROCLOR, Method: STANDARD PLATE
  mutagenic call: inactive; negative
Test System: AMES SALMONELLA TYPHIMURIUM, Strain/Indicator: TA1537, Metabolic Activation: NONE, Method: STANDARD PLATE
  mutagenic call: inactive; negative
Test System: AMES SALMONELLA TYPHIMURIUM, Strain/Indicator: TA1537, Metabolic Activation: RAT, LIVER, S-9, AROCLOR, Method: STANDARD PLATE
  mutagenic call: inactive; negative

## Cn1c(N)nc2cc3ccccc3cc21
Test System: AMES SALMONELLA TYPHIMURIUM, Strain/Indicator: TA98, Metabolic Activation: RAT, LIVER, S-9, AROCLOR 1254A, Method: STANDARD PLATE
  mutagenic call: active; positive
Test System: AMES SALMONELLA TYPHIMURIUM, Strain/Indicator: YG1024, Metabolic Activation: RAT, LIVER, S-9, AROCLOR 1254A, Method: STANDARD PLATE
  mutagenic call: active; positive

Source: PubChem BioAssay AID1259407 (Chemical Carcinogenesis Research Information System (CCRIS), 2018)
